The numbers were not newly measured in patent publication US7449585B2, “Indazol-3-ones and analogues and derivatives thereof which modulate the function of the vanilloid-1 receptor (VR1)” (Merck Sharp & Dohme Ltd., priority 2003, dated 2008), which cites them from elsewhere.

SMILES strings stand for the structures.

For the data set, the target named is VR1 (Rattus norvegicus, UniProt O35433). Conditions: literature (Wahl et al., Mol. Pharmacol, 59:9, 2001).
Sequence of VR1 (O35433 whole entry): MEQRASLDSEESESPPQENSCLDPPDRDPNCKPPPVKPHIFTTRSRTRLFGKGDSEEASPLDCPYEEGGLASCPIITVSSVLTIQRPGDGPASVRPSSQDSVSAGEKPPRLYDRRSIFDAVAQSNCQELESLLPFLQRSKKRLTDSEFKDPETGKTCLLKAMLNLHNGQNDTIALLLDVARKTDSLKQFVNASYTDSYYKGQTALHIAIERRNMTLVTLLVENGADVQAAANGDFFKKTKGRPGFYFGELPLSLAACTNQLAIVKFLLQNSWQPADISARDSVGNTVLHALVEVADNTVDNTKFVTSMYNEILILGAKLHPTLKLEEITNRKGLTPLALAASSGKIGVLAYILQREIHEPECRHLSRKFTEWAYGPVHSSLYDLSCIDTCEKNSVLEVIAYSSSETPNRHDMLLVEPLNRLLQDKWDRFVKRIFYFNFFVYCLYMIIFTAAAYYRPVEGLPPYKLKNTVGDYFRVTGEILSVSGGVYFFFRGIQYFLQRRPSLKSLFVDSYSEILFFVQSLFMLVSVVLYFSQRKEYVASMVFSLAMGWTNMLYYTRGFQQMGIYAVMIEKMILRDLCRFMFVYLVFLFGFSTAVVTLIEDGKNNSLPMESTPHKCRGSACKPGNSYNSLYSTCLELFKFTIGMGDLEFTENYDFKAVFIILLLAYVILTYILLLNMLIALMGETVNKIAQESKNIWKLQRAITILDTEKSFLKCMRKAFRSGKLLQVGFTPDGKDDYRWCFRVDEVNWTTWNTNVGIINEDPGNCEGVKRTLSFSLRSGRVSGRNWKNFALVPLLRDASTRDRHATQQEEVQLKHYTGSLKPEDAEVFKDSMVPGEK

As to `C=C(C)[C@]12C[C@@H](C)[C@@]34O[C@](Cc5ccccc5)(O[C@@H]1[C@@H]3C=C(COC(=O)Cc1cc(I)c(O)c(OC)c1)C[C@]1(O)C(=O)C(C)=C[C@@H]41)O2` [Iodo-resiniferatoxin], the “VR1 antagonist potency (in words)” value is recorded as “nanomolar antagonist”.
